{
  "source": "patent US20210052566A1",
  "about": "“METHODS FOR TREATING HEPATITIS B VIRUS (HBV) INFECTION” (INSERM (INSTITUT NATIONAL DE LA SANTÉ ET DE LA RECHERCHE …, priority 2018, published 2021)",
  "key": {"[1]": {"target": "serine/arginine-rich splicing factor 10 (SRSF10) (human) (UniProt O75494)", "sequence (O75494 whole entry)": "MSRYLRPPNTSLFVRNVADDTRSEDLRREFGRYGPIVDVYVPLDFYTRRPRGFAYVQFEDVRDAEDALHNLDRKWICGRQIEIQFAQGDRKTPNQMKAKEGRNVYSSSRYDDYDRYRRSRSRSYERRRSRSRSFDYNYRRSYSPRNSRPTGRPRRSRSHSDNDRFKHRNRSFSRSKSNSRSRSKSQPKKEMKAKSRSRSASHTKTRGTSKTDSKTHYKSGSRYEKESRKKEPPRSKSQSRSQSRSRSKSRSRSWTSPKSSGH", "test": "Strep-Tactin affinity purification of StrepTag-HBc complexes from hepatocyte nuclei, LC-MS/MS"}, "[2]": {"test_system": "HDV genotype 1", "test": "Establishment of HDV infection in dHepaRG (treatment 24 h before and during inoculation)", "type": "cell-based, hepatitis delta virus", "conditions": "1C8 10 microM, Entry Inh. 100 nM", "method": "(§1) FIG. 1. Experimental outlines. Treatment schemes: (a) Treatments in pre-infection: dHepaRG cells were treated for 24 h (at day −1) with 100 nM of PreS1 peptide (PreS1-pep) or 10 μM of 1C8, or untreated (NT). At day 0, cells were inoculated with HBV (MOI=250) or with HDV (MOI=25) in the presence of drugs for 24 h. For the tenofovir control (TDF at 10 μM), cells were treated at day 1 and 4 post-infection. Supernatant and cells were harvested at day 7 post-infection. (b) Treatments in post-infection: dHepaRG cells were inoculated with HBV (MOI=250) or with HDV (MOI=25). At days 4, 7 and 9 post infection, cells were treated with TDF 10 μM, lamivudine (3TC) at 10 μM, 1C8 10 μM or untreated (NT). Supernatant and cells were harvested at day 11 postinfection.\nFIG. 7. Effect of 1C8 on de novo establishment of ccDNA in dHepaRG (genotype D). […] B) HBs and HBe secreted antigens in supernatant were quantiUied by ELISA, whereas HBV DNA contained in virions was quantified by qPCR after viral nucleic acid extraction from supernatant. […] Statistics were done by two-tailed Mann-Whitney test, with following signiUicativity: *P<0.05, **P<0.01, ***P<0.001, ****P<0.0001. nd=not determined."}, "[3]": {"test_system": "HBV genotype D", "test": "Anti-HBV properties in persistently infected dHepaRG cells, genotype D (post-infection treatment)", "type": "cell-based, Hepatitis B virus", "conditions": "treated three times with 10 microM", "method": "as §1\nFIG. 5. Anti-HBV properties of 1C8 in persistently infected dHepaRG cells: genotype D. Differentiated HepaRG were infected with HBV genotype D at a MOI of 100 vge/cell or HDV genotype 1 at a MOI of 10 vge/cell for 7 days before being treated trice every 2-3 days with indicated molecules at a concentration of 10 microM. A) Total DNA and RNA were extracted from cells and subjected to qPCR and RTqPCR to detect HBV cccDNA, total HBV RNA or pregenomic HBV RNA. B) HBs and HBe secreted antigens in supernatant were quantified by ELISA, whereas HBV DNA contained in virions was quantified by qPCR after viral nucleic acid extraction from supernatant. C) Intracellular HDV RNA was quantified by RTqPCR after total RNA extraction from cells. D) Viability was monitored in 1C8-treated (or control treated; puromycin is a positive toxic molecule) cells by CellTiter-Glo® luminescent cell viability assay. Results are the mean+SEM of n=3 performed with 3 different differentiations of HepaRG. Statistics were done by two-tailed Mann-Whitney test, with following significativity: *P<0.05, **P<0.01, ***P<0.001, ****P<0.0001. nd=not determined\nHuman liver progenitor HepaRG cells were cultured in Williams medium (ThermoFisher) supplemented with 10% of FBS (Perbio), Penicillin/Streptomycin (500 U/mL), glutamine (2 mM), hydrocortisone Upjohn (2.5 mg/L; Serb laboratory), insulin (5 mg/L; Sigma Aldrich). For the differentiation process 2% of DMSO was added to the above-described supplemented Williams medium. […] The multiplicity of infection (MOI; expressed as virus genome equivalent/cell) is indicated in the figure legends, but was of 100 vge/cell if not precised.\nFrom cell culture supernatants, secreted HBe and HBs antigens were quantified by ELISA, using a chemiluminescence immunoassay kit (Autobio, China) following manufacturer's instructions. […]\nA HBV standard was used for quantification of extracellular viral DNA and RNA. […]"}},
  "data": [
    {"molecule": "StrepTag-HBc (core/capsid protein of HBV with a StrepTag at the N terminus)", "values": [
      {"measurement": "enrichment in HBc complexes", "setting": "[1]", "value": 3000, "unit": "times"}
    ]},
    {"molecule": "Entry Inh.: PreS1 peptide, aa 2 to 48 of HBV PreS1 (SEQ ID No 1), N-terminal myristoyl, used for inhibiting HBV entry [reference compound]", "values": [
      {"measurement": "block of the establishment of HDV infections", "setting": "[2]", "value": "inhibited"}
    ]},
    {"molecule": "C[C@H](Cn1cnc2c(N)ncnc21)OCP(=O)(O)O", "note": "[tenofovir, reference compound]", "values": [
      {"measurement": "impact on accumulation of intracellular HBV RNA", "setting": "[3]", "value": "not capable to impact"}
    ]}
  ]
}
